Here are results for eight molecules from patent US20030004165A1, “Polyazanaphthalene compounds and pharmaceutical use thereof” (AJINOMOTO CO. INC, priority 1999, published 2003).

Experiment [1] relates to MMP-3 (stromelysin-1) production by human joint normal synovial interstitial cells. Description: Inhibition of IL-1β-induced MMP-3 production from synovial cells. It is filed as cell-based. As to conditions: IL-1β 0.5 ng/ml stimulation, 16 to 18 hours, MMP-3 in culture fluid. Here is the method: Evaluation of Inhibiting Production of Matrix Metalloprotease (MMP) Collected From Synovial Cells
The human joint normal synovial interstitial cells (cell System-SS cells, Dainippon Pharmaceutical Co., Ltd.) were seeded on a 96-well plate in a concentration of 1×10^4 cells/well and cultured overnight. 30 minutes after the addition of the subject pharmaceutical compounds in a proper concentration, IL-1β was added to each well so as to obtain the final concentration of 0.5 ng/ml. After culturing overnight (16 to 18 hours) again, a culture fluid was collected and the amount of MMP-3 (stromelysin-1) in the culture fluid was determined. MMP-3 was determined with a test kit for determining stromelysin-1 (SL) in serum (Fuji Chemical Industries Ltd.), in accordance with an instruction book attached to the kit. When no stimulation was seen, the production amount was defined as 0% and when only […] stimulation was seen, the amount was defined as 100%.

In experiment [2] the test system is TNF α production by Balb/c mouse peritoneal cells. Description: Inhibition of LPS-induced TNF α production from mouse peritoneal cells. It counts as cell-based. As to conditions: LPS 10 μg/ml stimulation, 16 to 18 hours, TNF α by sandwich ELISA. As to the method: Evaluation of Inhibiting Production of Tumor Necrosis Factors (TNF)
RPMI medium was injected into a peritoneal cavity of Balb/c mouse (Charles River Japan, Inc.) and the peritoneal cells were collected. The peritoneal cells were seeded on a 96-well plate in a concentration of 1×10^4 cells/well. 30 minutes after the addition of the subject pharmaceutical compounds in a proper concentration, LPS (sigma, L-5886) was added to each well so as to obtain the final concentration of 10 μg/ml. After culturing overnight (16 to 18 hours) again, a culture fluid was collected and the amount of TNF α in the culture fluid was determined. Mouse TNF α was determined by the means of a sandwitch ELISA and anti-mouse TNF a hamster monoclonal antibody (Genzyme 1221-00) was used as the first antibody, anti-mouse TNF α rabbit polyclonal antibody (Genzyme, IP-400) as the second antibody, and alkaliphosphatase conjugate anti-rabbit IgG polyclonal goat antibody as the third antibody. Then, optical absorbance of alkaliphosphatase substrate (p-nitrophosphate) was determined and converted into the production amount. When no stimulation was seen, the production amount was defined as 0% and when only […] stimulation was seen, the amount was defined as 100%.
(In general: In an ELISA, binding on a coated surface is turned into a signal by an enzyme label.)

As to `COc1ccc(-c2cnc3cc(N)ncc3c2)cc1OC.Cl` [Example 18, 7-Amino-3-(3,4-Dimethoxyphenyl)-1,6-Naphthylidine Hydrochloride], in experiment [1], the “MMP Inhibition Activity (IC50)” value was determined as 0.31 µg/mL. In addition, in experiment [2], the “TNF Inhibition Activity (IC50)” value is 0.6 µg/mL.
The like results for `COc1ccc(-c2cnc3ccnc(N)c3c2)cc1OC` [Example 20, 5-Amino-3-(3,4-Dimethoxyphenyl)-1,6-Naphthylidine] were, in that order, 0.16 µg/mL and 0.3 µg/mL.
On to `COc1ccc(-c2cnc3ncccc3c2)cc1OC` [Example 23, 3-(3,4-Dimethoxyphenyl)-1,8-Naphthylidine], for which the “TNF Inhibition Activity (IC50)” value in experiment [2] was found to be 0.1 µg/mL.
In the case of `COc1ccc(-c2cnc3ccncc3c2)cc1OC` [Example 1, 3-(3,4-Dimethoxyphenyl)-1,6-Naphtylidine], the “MMP Inhibition Activity (IC50)” value in experiment [1] is 1.25 µg/mL. Besides, the “TNF Inhibition Activity (IC50)” value in experiment [2] worked out at 0.5 µg/mL.
Regarding `COc1ccc(-c2cnc3ccncc3c2)cc1OC1CCCC1` [Example 26, 3-(3-Cyclopentyloxy-4-Methoxyphenyl)-1,6-Naphthylidine], in experiment [2], the “TNF Inhibition Activity (IC50)” value was determined as 0.01 µg/mL.
Turning to `COc1ccc(-c2cnc3cnccc3c2)cc1OC` [Example 22, 3-(3,4-Dimethoxyphenyl)-1,7-Naphthylidine], in experiment [1], the “MMP Inhibition Activity (IC50)” value came out at 1.25 µg/mL. Also, the “TNF Inhibition Activity (IC50)” value in experiment [2] is 0.02 µg/mL.
The like results for `COc1ccc(-c2ccc3cnccc3n2)cc1OC` [Example 24, 2-(3,4-Dimethoxyphenyl)-1,6-Naphthylidine] were, in that order, 1.25 µg/mL and 0.6 µg/mL.
For `COc1ccc(-c2cnc3ccnc(Cl)c3c2)cc1OC` [Example 19, 5-Chloro-3-(3,4-Dimethoxyphenyl)-1,6-Naphthylidine], the “TNF Inhibition Activity (IC50)” value in experiment [2] amounted to 1 µg/mL.
